The values that follow come from publication PMC5605456 (Biochemistry, 2017).

Experiment [1] addresses T1, CmlI (Streptomyces venezuelae, UniProt F2RB83). Nature of the experiment: stopped-flow at […] nm, hyperbolic fit of reciprocal relaxation times. Format: binding.
For experiment [2], the target named is T1, CmlI. Described as above. Format: binding. The source holds these as a separate data set.

Molecules are shown by their SMILES. Like-named read-outs stand apart in the source and are kept apart here.

T1 sequence (F2RB83 whole entry): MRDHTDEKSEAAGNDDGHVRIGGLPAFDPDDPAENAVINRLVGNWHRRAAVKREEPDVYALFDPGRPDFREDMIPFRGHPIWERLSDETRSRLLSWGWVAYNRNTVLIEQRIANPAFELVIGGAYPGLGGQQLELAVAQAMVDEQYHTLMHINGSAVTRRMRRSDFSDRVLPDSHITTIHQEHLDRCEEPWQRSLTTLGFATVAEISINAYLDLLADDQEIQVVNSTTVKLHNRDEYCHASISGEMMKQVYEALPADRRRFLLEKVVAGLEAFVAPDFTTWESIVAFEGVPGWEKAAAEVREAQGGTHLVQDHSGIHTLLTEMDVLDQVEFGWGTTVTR

`Nc1ccc([C@@H](O)[C@@H](CO)NC(=O)C(Cl)Cl)cc1` [NH2-CAM, D-threo-1-(4-aminophenyl)-2-dichloroacetylamino-1,3-propanediol] had a dissociation constant (Kd) at CmlI [1] of 8.5 ± 1.5 mM. `O=C(N[C@H](CO)[C@H](O)c1ccc(NO)cc1)C(Cl)Cl` [NH(OH)-CAM] yielded a Kd on CmlI [2] of 1.1 ± 0.05 mM. On CmlI [1], `O=Nc1ccc([C@@H](O)[C@@H](CO)NC(=O)C(Cl)Cl)cc1` [NO-CAM] registered a Kd of 8.6 ± 1 mM.
